Results taken from EP0155872A1, “Process for reducing the lignin content of plants, and compositions for putting it into use” (priority 1984, dated 1985).
Values joined by “and” are separate entries in the source; they are usually repeats but may differ in a detail not shown here. Equal values may be shown once.

Tests used:
plants de mais [1] = assay: Soluble phenolic compounds of treated maize plants; format: in vivo; conditions: plants âgés de 30 jours, 80 µM; for FLAVONOIDES / PHENOLS SIMPLES: mean of 3
Procedure: (§1) Les différentes études dont les résultats sont rapportés ci-après ont été réalisées à partir de plants de mais âgés de 30 jours et traités par l'OHPAS et le NH2PAS à la concentration de 80 µM.
Le traitement des plants par les inhibiteurs ne modifie pas les teneurs en ces composés comme le montrent les résultats rapportés dans le tableau 6 ci-après. Cependant, on constate une baisse importante (40% avec l'OHPAS) des quantités de flavonoïdes.

plants de maïs [2] = assay: Cell-wall polysaccharide content of treated maize plants; format: in vivo; conditions: plants âgés de 30 jours; 80 µM
Procedure: as §1
Le dosage de l'ensemble des polysaccharides pariétaux mais également de la fraction cellulosique n'a révélé aucune différence significative entre les plants témoins et les plants traités.

CAD de peuplier = biological target: T1, CAD de peuplier (Populus deltoides, UniProt P31657); assay: In vitro inhibition of isolated poplar cinnamyl alcohol dehydrogenase (CAD) at 2 mM; format: biochemical; conditions: mode of action study
T1 construct: CAD de peuplier isolée selon la méthode deSARNI et al,1984; from tissue; host or cells: poplar plant material
T1 sequence (P31657 1-357): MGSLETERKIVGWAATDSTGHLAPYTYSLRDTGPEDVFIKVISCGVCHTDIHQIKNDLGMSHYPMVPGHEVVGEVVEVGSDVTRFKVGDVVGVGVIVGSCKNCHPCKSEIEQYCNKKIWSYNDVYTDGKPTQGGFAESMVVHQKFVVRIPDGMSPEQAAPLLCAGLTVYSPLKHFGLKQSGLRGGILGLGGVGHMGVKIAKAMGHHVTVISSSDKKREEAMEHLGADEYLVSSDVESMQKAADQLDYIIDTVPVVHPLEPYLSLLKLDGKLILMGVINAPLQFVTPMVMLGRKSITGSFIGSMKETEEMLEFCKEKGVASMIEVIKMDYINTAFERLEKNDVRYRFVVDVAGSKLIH

plants de maïs [3] = assay: Growth of maize plants treated with the inhibitors (weights, water content); format: in vivo
Procedure: Des plants de maïs ont été traités pendant 10, 20 ou 30 jours par l'OHPAS et le NH2PAS à deux concentrations (80 et 160 µM).
Les .inhibiteurs sont ajoutés au milieu nutritif.
Les cultures sur vermiculite (20 plants) sont arrosées quotidiennement par 250 ml de milieu (avec ou sans inhibiteurs). Les semis constituent le temps 0 de la culture, l'addition des inhibiteurs au milieu nutritif est réalisée dès l'émergence de la partie aérienne (2 à 3 jours). Les différentes caractéristiques des plants sont estimées après 10, 20 ou 30 jours.
Le traitement par les deux inhibiteurs conduit à des plants de maïs dont les caractéristiques pondérales et les teneurs en eau sont données dans le tableau 4. L'analyse des résultats ne montre aucune différence significative entre les plants traités et les plants témoins. De même, les tailles et l'aspect morphologique des différents lots sont similaires. Toutefois, on constate que le port dressé des maïs est légèrement affecté.

plants de mais [4] = assay: Primary metabolism of treated maize plants (soluble proteins, chlorophylls, nucleic acids); format: in vivo; conditions: plants âgés de 30 jours; 80 µM
Procedure: as §1
Afin d'estimer l'action de l'OHPAS et du NH2PAS sur le métabolisme primaire, les teneurs de trois classes de composés ont été estimées : les protéines solubles, les chlorophyllles et les acides nucléiques.

[5] = test system: fractions de xylème de peuplier; assay: Incorporation of cinnamic acid (14C3) into lignins by isolated poplar xylem fractions; format: cell-based; conditions: for Taux de radio-activité incorporé dans les lignines (%) / Radioactivité absorbée (µCi/essai) / Radioactivité incorporée dans les lignines (µCi/essai): 30 h; for Radioactivité absorbée (µCi/essai) / Radioactivité incorporée dans les lignines (µCi/essai): mean of 3; for inhibition at 200 µM / inhibition at 1000 µM: relative to % incorporated in the control = 100
Procedure: Les tissus de xylème isolés (300 mg par essai) sont mis en suspension dans des fioles d'erlenmeyer (25ml), bouchées par du coton cardé contenant : • - du tampon Tris/HCl, O,lM, pH 7,5 (qsp Sml) maintenant le pH entre 7 et 8, • - du Dextran T40 (25 g/1) utilisé comme agent osmotique, ne constituant pas une source de carbone pour la cellule végétale, • - du mercaptoéthanol (O,lmM), antioxydant qui empêche un brunissement très rapide des tissus, • - de l'éther monométhylique de l'éthylène glycol (EMMEG) (50 µl) ou des inhibiteurs solubilisés dans ce polyol (5^0 µ1), • - de l'acide cinnamique (^14C3) (2,5 µCi).
Les fioles sont palcées à 26°C, sous agitation orbitale (agitateur New Brunswick modèle G 10,100 rpm) et sous un éclairement de 4000 lux pendant 30 h. La radioactivité incorporée par les lignines est alors estimée à partir de "poudre alcool-benzène" obtenu par extraction à l'alcool-benzène des fractions tissulaires lyophilisées et réduites en poudre.
Afin de mesurer l'absorption de l'acide cinnamique par les fractions tissulaires et de corriger d'éventuelles différences d'absorption selon les essais, une fraction aliquote du milieu d'incubation (50 µl) est prélevée à différents temps et la radioactivité estimée au compteur à scintillation liquide.
La mesure de la radioactivité libérée sous forme de ^14CO2 après combustion totale des "poudres alcool-benzène" révèle qu'en présence du OHPAS ou du NH2PAS, on observe une baisse de la radioactivité retrouvée dans les lignines. Ainsi, ces inhibiteurs entraînent à la concentration de lmM, une inhibition de 40 à 70% de la synthèse des lignines radioactives. Ces résultats sont rapportés dans le tableau 3 ci-après : […]

plants de luzerne = assay: Lignin content of 30-day alfalfa plants; format: in vivo; conditions: plants de luzerne de 30 jours
Description: 6) Effets des inhibiteurs sur la teneur en lignines de plants de luzerne de 30 jours : • Le protocole est le même que celui décrit pour les plants de mais.
On rapporte dans le tableau 7 ci-après les pourcentages d'inhibition obtenus en fonction de la concentration en produit.

[6] = 10 jours de culture, 160 µm en inhibiteurs
[7] = 10 jours de culture, concentration not given
[8] = 10 jours de culture, concentration not given, mean of 20 plants
[9] = 20 jours de culture, 160 µm en inhibiteurs
[10] = 20 jours de culture, concentration not given
[11] = 30 jours de culture, 160 µm en inhibiteurs
[12] = 30 jours de culture, concentration not given

Compound | % PERTE (phénols simples) (plants de mais [1]) [%] | FLAVONOIDES (plants de mais [1]) | PHENOLS SIMPLES (plants de mais [1]) | synthèse de la fraction polysaccharidique de la paroi (plants de maïs [2]) | réversibilité de l'inhibition de la CAD (CAD de peuplier) | Poids matériel frais g/plant (plants de maïs [3]; [6]) | Poids matériel sec g/plant (plants de maïs [3]; [6]) | Teneur en eau g/g de poids sec (plants de maïs [3]; [6]) | Poids matériel sec g/plant (plants de maïs [3]; [7]) | Teneur en eau g/g de poids sec (plants de maïs [3]; [7]) | Poids matériel frais g/plant (plants de maïs [3]; [8]) | Poids matériel frais g/plant (plants de maïs [3]; [9]) | Poids matériel sec g/plant (plants de maïs [3]; [9]) | Teneur en eau g/g de poids sec (plants de maïs [3]; [9]) | Poids matériel frais g/plant (plants de maïs [3]; [10]) | Poids matériel sec g/plant (plants de maïs [3]; [10]) | Teneur en eau g/g de poids sec (plants de maïs [3]; [10]) | Poids matériel frais g/plant (plants de maïs [3]; [11]) | Poids matériel sec g/plant (plants de maïs [3]; [11]) | Teneur en eau g/g de poids sec (plants de maïs [3]; [11]) | also measured
CC(C)(C)OC(=O)C[S+]([O-])Nc1ccccc1O (stereo not shown) [composé 2, N-(o -hydroxy phényl)sulfinamoyl acétate de tertiobutyle] | 0 | 28 ± 11 mg d'acide gallique par g de matériel | 107 ± 8 mg d'acide gallique par g de matériel | n'apparaîssent pas affecter | faiblement réversible | 0,98 g/plant | 0,083 g/plant | 10,81 g/g de poids sec | 0,103 g/plant | 18,40 g/g de poids sec | 2,00 g/plant | 2,98 g/plant | 0,300 g/plant | 8,93 g/g de poids sec | 3,20 g/plant | 0,318 g/plant | 9,06 g/g de poids sec | 4,52 g/plant | 0,429 g/plant | 9,53 g/g de poids sec | % PERTE (flavonoïdes) (plants de mais [1]; listed as OHPAS): 40% and 42%; Poids matériel frais g/plant (plants de maïs [3]; [12]): 4,65 g/plant; Poids matériel sec g/plant (plants de maïs [3]; [12]): 0,420 g/plant; Teneur en eau g/g de poids sec (plants de maïs [3]; [12]): 10,07 g/g de poids sec; ADN (mg/g PS) (plants de mais [4]): 1,35 ± 0,6 mg/g PS; ARN (mg/g PS) (plants de mais [4]): 21,08 ± 0,3 mg/g PS; Chlorophylles (mg/g PS) (plants de mais [4]): 7,80 ± 0,3 mg/g PS; Protéines solubles (mg/g PS) (plants de mais [4]): 49,50 ± 1 mg/g PS; Taux de radio-activité incorporé dans les lignines (%) ([5]; 0,2mM): 24%; Radioactivité absorbée (µCi/essai) ([5]; 0,2mM): 0,75 µCi/essai; Radioactivité incorporée dans les lignines (µCi/essai) ([5]; 0,2mM): 0,18 µCi/essai; inhibition at 200 µM ([5]; 0,2mM): 17%; Taux de radio-activité incorporé dans les lignines (%) ([5]; 1mM): 10%; Radioactivité absorbée (µCi/essai) ([5]; 1mM): 0,75 µCi/essai; Radioactivité incorporée dans les lignines (µCi/essai) ([5]; 1mM): 0,075 µCi/essai; inhibition at 1000 µM ([5]; 1mM): 70%; % d'inhibition (teneur en lignines) (plants de luzerne; 25 µM): 13%; % d'inhibition (teneur en lignines) (plants de luzerne; 50 µM): 31%
CC(C)(C)OC(=O)C[S+]([O-])Nc1ccccc1N (stereo not shown) [composé 5, N-(o-Amino phényl)Sulfinamoyl Acétate de tertiobutyle] | 0 | 25 ± 14 mg d'acide gallique par g de matériel | 101 ± 10 mg d'acide gallique par g de matériel | n'apparaîssent pas affecter | faiblement réversible | 1,00 g/plant | 0,088 g/plant | 13,36 g/g de poids sec | 0,108 g/plant | 15,70 g/g de poids sec | 1,80 g/plant | 3,25 g/plant | 0,321 g/plant | 9,12 g/g de poids sec | 3,00 g/plant | 0,298 g/plant | 9,07 g/g de poids sec | 4,80 g/plant | 0,458 g/plant | 9,48 g/g de poids sec | % PERTE (flavonoïdes) (plants de mais [1]): 48%; Poids matériel frais g/plant (plants de maïs [3]; [12]): 4,40 g/plant; Poids matériel sec g/plant (plants de maïs [3]; [12]): 0,438 g/plant; Teneur en eau g/g de poids sec (plants de maïs [3]; [12]): 9,04 g/g de poids sec; ADN (mg/g PS) (plants de mais [4]): 1,38 ± 0,7 mg/g PS; ARN (mg/g PS) (plants de mais [4]): 19,81 ± 0,2 mg/g PS; Chlorophylles (mg/g PS) (plants de mais [4]): 7,69 ± 0,3 mg/g PS; Protéines solubles (mg/g PS) (plants de mais [4]): 49,30 ± 2 mg/g PS; Taux de radio-activité incorporé dans les lignines (%) ([5]; 0,2mM): 32%; Radioactivité absorbée (µCi/essai) ([5]; 0,2mM): 0,80 µCi/essai; Radioactivité incorporée dans les lignines (µCi/essai) ([5]; 0,2mM): 0,26 µCi/essai; inhibition at 200 µM ([5]; 0,2mM): 4%; Taux de radio-activité incorporé dans les lignines (%) ([5]; 1mM): 20%; Radioactivité absorbée (µCi/essai) ([5]; 1mM): 0,80 µCi/essai; Radioactivité incorporée dans les lignines (µCi/essai) ([5]; 1mM): 0,16 µCi/essai; inhibition at 1000 µM ([5]; 1mM): 40%; % d'inhibition (teneur en lignines) (plants de luzerne; 25 µM): 20%; % d'inhibition (teneur en lignines) (plants de luzerne; 50 µM): 17%
